System: 935938-334-R-J1-PDC complex spheroid viability
Assay: Anticancer human tumor 935938-334-R-J1-PDC patient-derived small intestine adenocarcinoma cell line growth inhibition [POLQ]
Conditions: for IC50: curve of first compound; for viability, T/C: stronger effect = lower value; active = viability on the fitted dose curve at most 10% of control; inactive = the rest
How it was run: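 Three-cell-type spheroids modelling solid tumor plus stroma served as the readout system; POL inhibitors were tested individually and in combination, concentration ranges set by clinical Cmax where known.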

[1] = second compound 0.0316 µM, first compound 0.0316 µM
[2] = second compound 0.0316 µM, first compound 0.1 µM
[3] = second compound 0.0316 µM, first compound 0.316 µM
[4] = second compound 0.0316 µM, first compound 1 µM
[5] = second compound 0.0316 µM, first compound 3.16 µM
[6] = second compound 0.0316 µM, first compound 10 µM
[7] = second compound 0.1 µM, first compound 0.0316 µM
[8] = second compound 0.1 µM, first compound 0.1 µM
[9] = second compound 0.1 µM, first compound 0.316 µM
[10] = second compound 0.1 µM, first compound 1 µM
[11] = second compound 0.1 µM, first compound 3.16 µM
[12] = second compound 0.1 µM, first compound 10 µM
[13] = second compound 0.316 µM, first compound 0.0316 µM
[14] = second compound 0.316 µM, first compound 0.1 µM
[15] = second compound 0.316 µM, first compound 0.316 µM
[16] = second compound 0.316 µM, first compound 1 µM
[17] = second compound 0.316 µM, first compound 3.16 µM
[18] = second compound 0.316 µM, first compound 10 µM
[19] = second compound 1 µM, first compound 0.0316 µM
[20] = second compound 1 µM, first compound 0.1 µM
[21] = second compound 1 µM, first compound 0.316 µM
[22] = second compound 1 µM, first compound 1 µM
[23] = second compound 1 µM, first compound 3.16 µM
[24] = second compound 1 µM, first compound 10 µM
[25] = second compound 3.16 µM, first compound 0.0316 µM
[26] = second compound 3.16 µM, first compound 0.1 µM
[27] = second compound 3.16 µM, first compound 0.316 µM
[28] = second compound 3.16 µM, first compound 1 µM
[29] = second compound 3.16 µM, first compound 3.16 µM
[30] = second compound 3.16 µM, first compound 10 µM
[31] = second compound 10 µM, first compound 0.0316 µM
[32] = second compound 10 µM, first compound 0.1 µM
[33] = second compound 10 µM, first compound 0.316 µM
[34] = second compound 10 µM, first compound 1 µM
[35] = second compound 10 µM, first compound 3.16 µM
[36] = second compound 10 µM, first compound 10 µM
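Note: spheroids exposed to drugs for seven days before viability read.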
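Throughout, for viability, T/C: 100% = DMSO vehicle control wells.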

C=CC(=O)N1CCN(c2nc(=O)n(-c3c(C)ccnc3C(C)C)c3nc(-c4c(O)cccc4F)c(F)cc23)C(C)C1 (stereo unspecified) + Nc1ccc(C#CCN(C(=O)Cc2ncc(C(F)(F)F)cc2C(F)(F)F)c2ccc(F)cc2)nn1
> 10000 nM: IC50 (second compound 0.0316 µM) | IC50 (second compound 0.1 µM) | IC50 (second compound 0.316 µM) | IC50 (second compound 1 µM) | IC50 (second compound 3.16 µM) | IC50 (second compound 10 µM)
inactive: viability, T/C [1] 99.1% | viability, T/C [2] 111% | viability, T/C [3] 87.1% | viability, T/C [4] 128% | viability, T/C [5] 125% | viability, T/C [6] 112% | viability, T/C [7] 90.7% | viability, T/C [8] 99.5% | viability, T/C [9] 91.2% | viability, T/C [10] 138% | viability, T/C [11] 122% | viability, T/C [12] 107% | viability, T/C [13] 106% | viability, T/C [14] 106% | viability, T/C [15] 87.3% | viability, T/C [16] 94.8% | viability, T/C [17] 128% | viability, T/C [18] 87.4% | viability, T/C [19] 91.4% | viability, T/C [20] 96.9% | viability, T/C [21] 98.4% | viability, T/C [22] 134% | viability, T/C [23] 115% | viability, T/C [24] 138% | viability, T/C [25] 85.1% | viability, T/C [26] 89.9% | viability, T/C [27] 114% | viability, T/C [28] 95.9% | viability, T/C [29] 183% | viability, T/C [30] 113% | viability, T/C [31] 88.2% | viability, T/C [32] 95.8% | viability, T/C [33] 116% | viability, T/C [34] 89.3% | viability, T/C [35] 119% | viability, T/C [36] 138%

CC1COCCN1c1cc(-c2ccnn2C)c2ccnc(-c3ccn[nH]3)c2n1 (stereo unspecified) + Nc1ccc(C#CCN(C(=O)Cc2ncc(C(F)(F)F)cc2C(F)(F)F)c2ccc(F)cc2)nn1
86.6 nM: IC50 (second compound 3.16 µM)
85.6 nM: IC50 (second compound 0.1 µM)
71.5 nM: IC50 (second compound 0.0316 µM)
86.2 nM: IC50 (second compound 0.316 µM)
91.5 nM: IC50 (second compound 10 µM)
inactive: viability, T/C [1] 92.4% | viability, T/C [2] 32.2% | viability, T/C [3] 19.1% | viability, T/C [4] 15.3% | viability, T/C [5] 14.8% | viability, T/C [6] 17.6% | viability, T/C [7] 89.4% | viability, T/C [8] 43.9% | viability, T/C [9] 18.5% | viability, T/C [10] 13.6% | viability, T/C [11] 21.2% | viability, T/C [12] 19.4% | viability, T/C [13] 117% | viability, T/C [14] 40% | viability, T/C [15] 17.4% | viability, T/C [16] 13.3% | viability, T/C [17] 18.7% | viability, T/C [18] 22% | viability, T/C [19] 103% | viability, T/C [20] 40.2% | viability, T/C [21] 20.2% | viability, T/C [22] 16.3% | viability, T/C [23] 16.8% | viability, T/C [24] 21.2% | viability, T/C [25] 91.7% | viability, T/C [26] 44% | viability, T/C [27] 15.5% | viability, T/C [28] 16.1% | viability, T/C [29] 19.2% | viability, T/C [30] 27.6% | viability, T/C [31] 93.4% | viability, T/C [32] 46.3% | viability, T/C [33] 19.4% | viability, T/C [34] 18.4% | viability, T/C [35] 19.3% | viability, T/C [36] 21.1%
83.8 nM: IC50 (second compound 1 µM)

CC1COCCN1c1cc(C2(S(C)(=N)=O)CC2)nc(-c2ccnc3[nH]ccc23)n1 (stereo unspecified) + Nc1ccc(C#CCN(C(=O)Cc2ncc(C(F)(F)F)cc2C(F)(F)F)c2ccc(F)cc2)nn1
3830 nM: IC50 (second compound 0.0316 µM)
2330 nM: IC50 (second compound 0.1 µM)
2480 nM: IC50 (second compound 1 µM)
1810 nM: IC50 (second compound 10 µM)
3220 nM: IC50 (second compound 0.316 µM)
inactive: viability, T/C [1] 105% | viability, T/C [2] 83.7% | viability, T/C [3] 97.7% | viability, T/C [4] 76.1% | viability, T/C [5] 58.7% | viability, T/C [6] 15.2% | viability, T/C [7] 104% | viability, T/C [8] 117% | viability, T/C [9] 91.8% | viability, T/C [10] 91% | viability, T/C [11] 35% | viability, T/C [12] 16% | viability, T/C [13] 83.9% | viability, T/C [14] 96.8% | viability, T/C [15] 96.7% | viability, T/C [16] 82.8% | viability, T/C [17] 50.9% | viability, T/C [18] 14.2% | viability, T/C [19] 118% | viability, T/C [20] 98.6% | viability, T/C [21] 94.2% | viability, T/C [22] 78.2% | viability, T/C [23] 38.8% | viability, T/C [24] 22.6% | viability, T/C [25] 93.5% | viability, T/C [26] 93.2% | viability, T/C [27] 108% | viability, T/C [28] 70.5% | viability, T/C [29] 34.1% | viability, T/C [30] 17.9% | viability, T/C [31] 106% | viability, T/C [32] 111% | viability, T/C [33] 137% | viability, T/C [34] 75.3% | viability, T/C [35] 36.8% | viability, T/C [36] 16%
1900 nM: IC50 (second compound 3.16 µM)

— PubChem BioAssay AID1963829 (Molecular Pharmacology Branch, DTP, NCI, 2024)
